Reference: publication PMC7083851, “Extended pharmacodynamic responses observed upon PROTAC-mediated degradation of RIPK2” (Communications Biology, 2020)
“And” between values parts separate entries of the source, which are not always exact repeats. Equal entries are not always repeated. Where two headings read alike, the source gives them in different places.

Experiments:
[1] = system: L18-MDP-stimulated TNFα release; assay: TNFα after ex vivo L18-MDP stimulation of blood from dosed rats; format: in vivo, rat; parameters: key to TNFα after ex vivo L18-MDP stimulation: % of pre-dose or vehicle sample; conditions: for TNFα after ex vivo L18-MDP stimulation: fig 5b; for TNFa: fig 5e, individual rats 6-10, time 0 = 100; for TNFα inhibition (ex vivo L18-MDP): 0.05 mg/kg/day QD SC
Protocol: Male CD or Wistar Han rats (7–9 weeks old, Charles River UK Ltd.) were randomly allocated to treatment groups upon arrival. Female CD rats (7–8 weeks old on arrival, Charles River Ltd.) were placed into groups using a randomization schedule based on body weight prior to the study start. All animals were acclimatized for a minimum of one week prior to the experiment commencing.
Subcutaneous PROTAC solution formulations were prepared on the day of dosing as outlined below and filtered through a 0.22 µm Millex PVDF filter (Millipore) prior to PROTAC administration. PROTAC 4 was dissolved in saline with the pH adjusted to 5.0 with sodium hydroxide (1 M).
Ex vivo stimulation of rat blood with L18-MDP for PD: PPD blood samples taken prior to PROTAC administration or at fixed timepoints post PROTAC administration through the course of the study, were treated ex vivo with 100 ng/mL L18-MDP (Invivogen) or vehicle (0.1% DMSO) and incubated for 4 h. Following centrifugation, plasma was collected for cytokines analysis as detailed in cytokines assay section. Additionally, RIPK2 levels were determined in PBMCs isolated from blood and where collected, in sampled colon tissue as described in the text.
(§1) Cytokine measurement assay: Cytokine levels were measured in rat plasma or rat PBMCs cell culture supernatants using rat V-Plex TNFα, in human plasma or human PBMCs cell culture supernatants with either TNFα tissue culture or 7-plex kit. Rat serum and tissues samples from the in vivo L18-MDP acute inflammation model were analyzed using the rat TNFα, Il-6 and IL-8 U-Plex kits. All kits provided by Meso Scale Discovery (MSD). Levels of cytokines spontaneously released from human colon biopsies cell culture supernatants were measured using Human IL-1 beta/IL-1F2 DuoSet ELISA (Bio-techne), Human IL-6 ELISA (Immunotools) and Human TNF-alpha DuoSet ELISA (Bio-techne). All samples were processed accordingly to the manufacturer’s instructions. The MSD plates were analyzed using the MSD sector imager 6000 plate reader and cytokines concentration (pg/ml) was obtained by using the MSD DISCOVERY WORKBENCH software version 4.0.12.1
Statistics and reproducibility: All data were represented as percentage of the control sample: DMSO treated cells for the in vitro assays and the pre-dose or vehicle sample for the in vivo experiments.

[2] = system: L18-MDP-induced TNFα release; assay: L18-MDP-induced cytokine release (TNFα, IL1β, IL-6, IL-8, IL-10) in human PBMCs; format: cell-based; conditions: Homo sapiens, PBMC
Protocol: PBMCs were isolated from leukodepletion filter from platelet aphaeresis supplied by National Health System Blood and Transplant—NHSBT Apheresed at NHBST.
Before treatment with compound or vehicle, THP1 cells, human and rat PBMCs were counted using Vi-Cell cell counter (Invitrogen) and adjusted to a final cell density of […] using complete growth medium. Cells or whole blood were treated with vehicle (0.1% DMSO) or fixed concentrations of compound up to 1 μM in half log unit increments and incubated for the time period indicated in the figure.
Where the assessment of cytokines was performed, L18-MDP was added to the cell culture media (1 μg/ml) or to the rat blood samples (100 ng/ml) and samples were incubated for up to 4 h. […] Samples were them spun down at 1000 g and the cell culture supernatant, plasma or serum were collected for cytokines assessment, while cell pellets were used for RIPK2 and/or cIAP1, cIAP2, and XIAP levels analysis via immunoblotting.
as §1
In vitro experimental data were analyzed using a 4-parameter logistic equation in GraphPad Prism 5.0.4. to generate an estimate of the half-maximal concentration and maximal degradation, DC50 and Dmax value respectively, for concentration-degradation relationships. Cytokine levels were analyzed in a similar manner to yield IC50 and Imax values. […] Where analysis to a sigmoidal relationship was not possible, the data points are shown as mean ± s.e.m.

[3] = Blood concentrations after subcutaneous dosing in rat PK/PD studies; format: in vivo; conditions: rat, […] Q3D SC
Protocol: Female CD rats (7–8 weeks old on arrival, Charles River Ltd.) were placed into groups using a randomization schedule based on body weight prior to the study start. All animals were acclimatized for a minimum of one week prior to the experiment commencing. […] PROTAC 4 was dissolved in saline with the pH adjusted to 5.0 with sodium hydroxide (1 M).

For `CN[C@@H](C)C(=O)N[C@H](C(=O)N1C[C@@H](NC(=O)c2cnc(N3CCN(CCCOc4cc5ncnc(Nc6n[nH]c(C)c6C)c5cc4S(=O)(=O)C(C)(C)C)CC3)cn2)C[C@H]1C(=O)Nc1c(F)cccc1F)C(C)(C)C` [PROTAC 6], the “TNFα after ex vivo L18-MDP stimulation” value ([1]; 0.005 mg/kg, time 6 h, rats 6-10) was 103.74 and 107.75 and 89.01 and 67.06 and 122.94, the “TNFα after ex vivo L18-MDP stimulation” value ([1]; 0.005 mg/kg, time 96 h, rats 6-10) was 59.51 and 62.83 and 97.91 and 70.36 and 61.76 and the “TNFα after ex vivo L18-MDP stimulation” value ([1]; 0.05 mg/kg, time 48 h, rats 11-15) was 25.93 and 24.59 and 27.99 and 42.15 and 37.98. The TNFa ([1]; time 24 h) was 0.86 and 0.61 and 0.92 and 2.90 and 3.38, the TNFa ([1]; time 72 h) was 13.57 and 6.85 and 8.80 and 22.86 and the “cumulative PD effect, in words” value ([1]; rat, 0.05 mg/kg Q3D SC) was “failed to show this cumulative PD effect”. For the same compound, the “TNFα inhibition (ex vivo L18-MDP)” value ([1]; rat, 6 h post-dose) was ~ 60%, the “TNFα inhibition (ex vivo L18-MDP)” value ([1]; rat, 24 h post-dose) was ~ 60% and the “TNFα inhibition (ex vivo L18-MDP)” value ([1]; rat, 54 h (6 h after third dose)) was greater than 90%. For the same compound, the “inhibition of TNFα release (ex vivo L18-MDP)” value ([1]; rat, 0.5 mg/kg/day QD SC, 24 h) was greater than 90%, the “effect on TNFα levels, in words” value ([1]; rat, single 0.005 mg/kg SC) was “no significant effect” and the “inhibition of TNFα release upon ex vivo L18-MDP challenge” value ([1]; rat, single 0.05 mg/kg SC, first 48 h) was greater than 60%. For the same compound, the “inhibition of TNFα levels upon ex vivo whole blood L18-MDP challenge” value ([1]; rat, single 0.5 mg/kg SC, over the duration of the study (5 days)) was greater than 70%, the “TNFa (time 0 = 100)” value ([1]; time 72 h, rats 11-15, fig 5d) was 91.60 and 114.81 and 76.37 and 83.72 and the IC50 ([2]; 6 h, read-out: hPBMC MDP pIC50 ± SEM, 6 h (n = 3) (converted)) was 0.501 nM. For the same compound, the IC50 ([2]; read-out: pIC50 IL1β release following L18-MDP-stimulation (converted)) was less than 1.58 nM, the IC50 ([2]; read-out: pIC50 IL-6 release following L18-MDP-stimulation (converted)) was less than 1.58 nM and the IC50 ([2]; read-out: pIC50 IL-10 release following L18-MDP-stimulation (converted)) was less than 1.58 nM. For the same compound, the IC50 ([2]; read-out: pIC50 TNFα release following L18-MDP-stimulation (converted)) was less than 1.58 nM and the “time drug levels were maintained above the LLQ after the first dose” value [3] was 24 h.
